From US5753617A, “Peptide inhibitors of cellular adhesion” (Centocor, Inc., priority 1995, dated 1998)
Where a SMILES comes first, the peptide text is derived from it. Bridges are numbered along the chain shown (N, C = ends). [ ]: non-standard residue; d: D form. d2Nal = N[C@H](Cc1ccc2ccccc2c1)C(=O)O; dΔPro = O=C(O)[C@H]1C=CCN1

Target: T1, P-selectin (Homo sapiens, UniProt P16109)
T1 construct: P-selectin is isolated from human platelet lysates; from tissue; host or cells: human platelets (outdated platelet packs from a blood bank)
T1 sequence (P16109 42-830): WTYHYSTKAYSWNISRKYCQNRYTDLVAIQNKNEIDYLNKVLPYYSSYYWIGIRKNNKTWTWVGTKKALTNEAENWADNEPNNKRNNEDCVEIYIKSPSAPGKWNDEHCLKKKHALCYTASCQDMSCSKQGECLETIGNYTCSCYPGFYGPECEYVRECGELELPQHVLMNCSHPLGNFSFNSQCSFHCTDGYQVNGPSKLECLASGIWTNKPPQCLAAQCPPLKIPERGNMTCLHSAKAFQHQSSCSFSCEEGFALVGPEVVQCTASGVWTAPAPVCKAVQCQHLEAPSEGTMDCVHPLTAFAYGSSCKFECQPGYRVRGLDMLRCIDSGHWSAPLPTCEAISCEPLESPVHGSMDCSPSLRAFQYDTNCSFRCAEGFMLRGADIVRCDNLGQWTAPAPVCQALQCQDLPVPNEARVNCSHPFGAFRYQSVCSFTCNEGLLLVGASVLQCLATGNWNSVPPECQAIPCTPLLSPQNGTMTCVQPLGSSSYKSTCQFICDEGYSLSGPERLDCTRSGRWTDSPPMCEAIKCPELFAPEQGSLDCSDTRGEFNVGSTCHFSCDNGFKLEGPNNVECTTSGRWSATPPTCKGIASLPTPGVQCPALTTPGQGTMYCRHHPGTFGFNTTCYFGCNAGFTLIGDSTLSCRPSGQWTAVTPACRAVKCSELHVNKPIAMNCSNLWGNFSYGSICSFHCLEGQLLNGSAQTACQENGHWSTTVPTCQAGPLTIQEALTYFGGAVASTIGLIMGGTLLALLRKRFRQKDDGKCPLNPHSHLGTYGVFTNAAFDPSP
Assay: Inhibition of human neutrophil adhesion to purified P-selectin immobilized on plastic wells
Assay type: cell-based
Settings: inhibiting the binding of human neutrophils to P-selectin
Source text: Peptides can be screened for their ability to inhibit adhesion to cells, for example, neutrophil adhesion to purified P-selectin immobilized on plastic wells, using the assay described by Geng, et al., Nature 343, 757-760 (1990). Human neutrophils are isolated from heparinized whole blood by density gradient centrifugation on Mono-Poly resolving media, Flow Laboratories. Neutrophil suspensions are greater than 98% pure and greater than 95% viable by trypan blue exclusion. For adhesion assays, neutrophils are suspended at a concentration of 2×10^6 cells/mL in Hanks' balanced salt solution containing 1.26 mM Ca^2+ and 0.81 mM Mg^2+ (HBSS, Gibco) with […] human serum albumin (HBSS/HSA). Adhesion assays are conducted in triplicate in 96-well microliter plates, Corning, incubated at 4° C. overnight with 50 microliters of various protein solutions. P-selectin is isolated from human platelet lysates by immunoaffinity chromatography on antibody S12-Sepharose™ and ion-exchange chromatography on a Mono-Q™ column (FLPC, Pharmacia Fine Chemicals), as follows. Outdated human platelet packs (100 units) obtained from a blood bank and stored at 4° C. are pooled, adjusted to 5 mM EDTA at pH 7.5, centrifuged at 4,000 rpm for 30 minutes in 1 liter bottles, then washed three times with 1 liter of 0.1M NaCl, 20 mM Tris pH 7.5 (TBS), 5 mM EDTA, 5 mM benzamidine. The pellets are then resuspended in a minimum amount of wash buffer and made 1 mM in DIFP, then frozen in 50 mL screwtop tubes at -80° C. The frozen platelets are thawed and resuspended in 50 mL TBS, 5 mM benzamidine, 5 mM EDTA pH 7.5, […]. The suspension is frozen and thawed two times in a dry ice-acetone bath using a 600 mL lyophilizing flask, then homogenized in a glass/teflon mortar and pestle and made 1 mM in DIFP. The NaCl concentration is adjusted to 0.5M with a stock solution of 4M NaCl. After stirring the suspension at 4° C., it is centrifuged in polycarbonate tubes at 33,000 rpm for 60 minutes at 4° C. The supernatant (0.5M NaCl wash) is removed and saved; this supernatant contains the soluble form of P-selectin. Care is taken not to remove the top part of the pellet with the supernatant. The pellets are then homogenized in extraction buffer (TBS, 5 mM benzamidine, 5 mM EDTA, pH 7.5, 100 μM leupeptin, 2% Triton X-100). After centrifugation at 19,500 rpm for 25 minutes at 4° C., the supernatant is removed. The extraction procedure is repeated with the pellet and the supernatant is combined with the first supernatant. The combined extracts, which contain the membrane form of P-selectin, are adjusted to 0.5M NaCl. The soluble fraction (0.5M NaCl wash) and the membrane extract (also adjusted to 0.5M NaCl) are absorbed with separate pools of the monoclonal antibody S12 (directed to P-selectin) previously couple […]) at 5 mg/mL for 2 hours at 4° C. After letting the resins settle, the supernatants are removed. The S12 Affigel containing bound GMP-140 is then loaded into a column and washed overnight at 4° C. with 400 mL of 0.5M NaCl, 20 mM Tris pH 7.5, 0.01% Lubrol PX. Bound P-selectin is eluted from the S12 Affigel with 100 mL of 80% ethylene glycol, 1 mM MES pH 6.0, 0.01% Lubrol PX. Peak fractions with absorbance at 280 nm are pooled. Eluates are dialyzed against TBS with 0.05% Lubrol, then applied to a Mono Q column (FPLC from Pharmacia). The concentrated protein is step eluted with 2M NaCl, 20 mM Tris pH 7.5 (plus 0.05% Lubrol PX for the membrane fraction). Peak fractions are dialyzed into TBS pH 7.5 (plus 0.05% Lubrol PX for the membrane fraction). P-selectin is plated at 5 micrograms/mL and the control proteins: human serum albumin (Alb), platelet glycoprotein IIb/IIIa (IIb), von Willebrand factor (vWF), fibrinogen (FIB), thrombomodulin (TM), gelatin (GEL) or human serum (HS), are added at 50 micrograms/mL. […]

| IC50 | SMILES |
| --- | --- |
| 93 µM | CC[C@H](C)[C@@H]1NC(=O)CNC(=O)[C@@H](NC(=O)[C@@H](NC(=O)[C@H](CCCCN)NC(=O)[C@@H](N)CCCNC(=N)N)[C@@H](C)CC)CCC(=O)NCCCC[C@@H](C(=O)N[C@@H](Cc2c[nH]c3ccccc23)C(=O)N[C@H](C(N)=O)C(C)C)NC(=O)[C@H](Cc2c[nH]c3ccccc23)NC1=O [(30)] (H-RKIEGIWKWV-NH2; lactam 4-8) |
| 18 µM | CC[C@H](C)[C@@H]1NC(=O)CNC(=O)[C@@H](NC(=O)[C@@H](NC(=O)[C@H](CCCCN)NC(=O)[C@@H](N)CCCNC(=N)N)[C@@H](C)CC)CCCCNC(=O)CC[C@@H](C(=O)N[C@@H](Cc2c[nH]c3ccccc23)C(=O)N[C@H](C(N)=O)C(C)C)NC(=O)[C@H](Cc2c[nH]c3ccccc23)NC1=O [(31)] (H-RKIKGIWEWV-NH2; lactam 4-8) |
| 23 µM | CC[C@@H](C)[C@@H](NC(=O)[C@@H](CCCCN)NC(=O)[C@H](N)CCCNC(=N)N)C(=O)NCC(=O)N[C@@H]1CSSC[C@H](C(=O)N[C@@H](C(=O)N[C@@H](C(N)=O)C(C)C)[C@H](C)O)NC(=O)[C@@H](Cc2c[nH]c3ccccc23)NC(=O)[C@@H]([C@H](C)CC)NC1=O [(32)] (H-[dR][dK][dI]G[dC][dI][dW][dC][dT][dV]-NH2; disulfide 5-8) |
| 88.5 µM | CC(C)[C@@H](NC(=O)[C@@H](Cc1c[nH]c2ccccc12)NC(=O)[C@H](NC(=O)[C@@H](Cc1c[nH]c2ccccc12)NC(=O)[C@H]1CSSC[C@@H](NC(=O)[C@H](CCCCN)NC(=O)[C@H](N)CCCNC(=N)N)C(=O)NCC(=O)N[C@@H](Cc2ccccc2)C(=O)N1)[C@H](C)O)C(N)=O [(34)] (H-[dR]K[dC]GF[dC][dW][dT][dW][dV]-NH2; disulfide 3-6) |
| 11.6 µM | CC(C)[C@@H](NC(=O)[C@@H](Cc1c[nH]c2ccccc12)NC(=O)[C@H](NC(=O)[C@@H](Cc1c[nH]c2ccccc12)NC(=O)[C@H]1CSSC[C@H](NC(=O)[C@@H](CCCCN)NC(=O)[C@H](N)CCCNC(=N)N)C(=O)NCC(=O)N[C@@H](Cc2ccccc2)C(=O)N1)[C@H](C)O)C(N)=O [(35)] (H-[dR][dK]CGF[dC][dW][dT][dW][dV]-NH2; disulfide 3-6) |
| 267 µM | CC(C)[C@@H](NC(=O)[C@@H](Cc1c[nH]c2ccccc12)NC(=O)[C@H](NC(=O)[C@@H](Cc1c[nH]c2ccccc12)NC(=O)[C@H]1CSSC[C@@H](NC(=O)[C@@H](CCCCN)NC(=O)[C@H](N)CCCNC(=N)N)C(=O)NCC(=O)N2CC=C[C@@H]2C(=O)N1)[C@H](C)O)C(N)=O [(36)] (H-[dR][dK][dC]G[dΔPro][dC][dW][dT][dW][dV]-NH2; disulfide 3-6) |
| 324 µM | CC(C)[C@@H](NC(=O)[C@@H](Cc1c[nH]c2ccccc12)NC(=O)[C@H](NC(=O)[C@@H](Cc1c[nH]c2ccccc12)NC(=O)[C@H]1CSSC[C@@H](NC(=O)[C@@H](CCCCN)NC(=O)[C@H](N)CCCNC(=N)N)C(=O)NCC(=O)N[C@@H](CCCNC(=N)N)C(=O)N1)[C@H](C)O)C(N)=O [(40)] (H-[dR][dK][dC]GR[dC][dW][dT][dW][dV]-NH2; disulfide 3-6) |
| 48.4 µM | CC(C)[C@@H](NC(=O)[C@@H](Cc1c[nH]c2ccccc12)NC(=O)[C@H](NC(=O)[C@@H](CCC(N)=O)NC(=O)[C@H]1CSSC[C@@H](NC(=O)[C@@H](CCCCN)NC(=O)[C@H](N)CCCNC(=N)N)C(=O)NCC(=O)N[C@@H](Cc2ccccc2)C(=O)N1)[C@H](C)O)C(N)=O [(46)] (H-[dR][dK][dC]GF[dC][dQ][dT][dW][dV]-NH2; disulfide 3-6) |
| 406 µM | CC(C)[C@@H](NC(=O)[C@@H](Cc1c[nH]c2ccccc12)NC(=O)[C@H](NC(=O)[C@@H](Cc1c[nH]cn1)NC(=O)[C@H]1CSSC[C@@H](NC(=O)[C@@H](CCCCN)NC(=O)[C@H](N)CCCNC(=N)N)C(=O)NCC(=O)N[C@@H](Cc2ccccc2)C(=O)N1)[C@H](C)O)C(N)=O [(48)] (H-[dR][dK][dC]GF[dC][dH][dT][dW][dV]-NH2; disulfide 3-6) |
| 7.1 µM | CC[C@H](C)[C@@H]1NC(=O)[C@H]([C@@H](C)CC)NC(=O)[C@H](NC(=O)[C@@H](CCCCN)NC(=O)[C@H](N)CCCNC(=N)N)CSSC[C@H](C(=O)N[C@H](Cc2c[nH]c3ccccc23)C(=O)N[C@@H](C(=O)N[C@H](Cc2c[nH]c3ccccc23)C(=O)N[C@@H](C(N)=O)C(C)C)[C@H](C)O)NC1=O [(49)] (H-[dR][dK][dC]II[dC][dW][dT][dW][dV]-NH2; disulfide 3-6) |
| 19.5 µM | CC(=O)NCCCC[C@@H](NC(=O)[C@H]1CSC[C@@H](NC(=O)[C@@H](CCCCN)NC(=O)[C@H](N)CCCNC(=N)N)C(=O)NCC(=O)N[C@@H](Cc2ccccc2)C(=O)N1)C(=O)N[C@@H](C(=O)N[C@H](Cc1c[nH]c2ccccc12)C(=O)N[C@@H](C(N)=O)C(C)C)[C@H](C)O [(50)] |
| 7.7 µM | CC(C)[C@@H](NC(=O)[C@@H](Cc1c[nH]c2ccccc12)NC(=O)[C@H](NC(=O)[C@@H](Cc1ccc2ccccc2c1)NC(=O)[C@H]1CSSC[C@@H](NC(=O)[C@@H](CCCCN)NC(=O)[C@H](N)CCCNC(=N)N)C(=O)NCC(=O)N[C@@H](Cc2ccccc2)C(=O)N1)[C@H](C)O)C(N)=O [(51)] (H-[dR][dK][dC]GF[dC][d2Nal][dT][dW][dV]-NH2; disulfide 3-6) |
| 217 µM | CC(C)[C@@H](NC(=O)[C@@H](Cc1c[nH]c2ccccc12)NC(=O)[C@H](NC(=O)[C@@H](Cc1c[nH]c2ccccc12)NC(=O)[C@H]1CSSC[C@@H](NC(=O)[C@@H](CCCCN)NC(=O)[C@H](N)CCCNC(=N)N)C(=O)N[C@H](CCCCN)C(=O)N[C@@H](Cc2ccccc2)C(=O)N1)[C@H](C)O)C(N)=O [(54)] (H-[dR][dK][dC][dK]F[dC][dW][dT][dW][dV]-NH2; disulfide 3-6) |
| 727 µM | CC(C)[C@@H](NC(=O)[C@@H](Cc1c[nH]c2ccccc12)NC(=O)[C@H](NC(=O)[C@@H](CCCCN)NC(=O)[C@H]1CSSC[C@@H](NC(=O)[C@@H](CCCCN)NC(=O)[C@H](N)CCCNC(=N)N)C(=O)NCC(=O)N[C@@H](Cc2ccccc2)C(=O)N1)[C@H](C)O)C(N)=O [(56)] (H-[dR][dK][dC]GF[dC][dK][dT][dW][dV]-NH2; disulfide 3-6) |
